Source: PMC6353898, “A Rational Approach for Creating Peptides Mimicking Antibody Binding” (Scientific Reports, 2019)
Where two headings read alike, the source gives them in different places. Square brackets hold non-standard residues; d marks the D form. Ends that are not written are not given here. Peptide text beside a SMILES is read from it. * marks the point of attachment. Dolaproine = CO[C@@H]([C@@H]1CCCN1)[C@@H](C)C(=O)O; Dil = CC[C@H](C)[C@H](NC)[C@@H](CC(=O)O)OC; X1 = C[C@@H](N*)[C@@H](O)c1ccccc1; NMeV = CN[C@H](C(=O)O)C(C)C

Columns and labels:
[1] = molecular target: EGFR recombinant human protein (Homo sapiens, UniProt P00533); assay: Surface plasmon resonance, EGFR as immobilized surface; assay type: binding; details: SPR, 25 °C, PBS with 0.01% Tween 20 pH 7.4
Protocol: All experiments were carried out at 25 °C.

[2] = molecular target: bovine serum albumin (BSA) (Bos taurus, UniProt P02769); details: pH 7.4
Protocol: Surface plasmon resonance (SPR) studies were conducted using the Dual Channel SPR Spectrometer SPR7000DC (Reichert Technologies, New York, USA) to determine the binding affinity of peptides to EGFR protein. All experiments were carried out at 25 °C. Phosphate buffer saline (PBS) with 0.01% Tween 20 (pH7.4) was filtered and thoroughly degassed before use. EGFR (20 µg/mL) recombinant human protein and bovine serum albumin (BSA 20 µg/mL) were covalently attached to the left channel of 500,000 Da carboxymethylated dextran sensor chips using 1-ethyl-3-(3-dimethylaminopropyl)-carbodiimide (EDC) and N-hydroxysuccinimide (NHS) chemistry. The chips were then blocked by passing ethanolamine for 8 minutes at a rate of 10 µL/min.
All peptides were injected as soluble analytes in PBS with 0.01% Tween 20 at different concentrations with an injection speed at 15 µL/min. […] The bound surface was regenerated by sequential injections of 10 mM glycine in PBS (pH 2.5).
The sensorgrams from SPR were globally treated using Scrubber 2 software (BioLogic Software Pty Ltd, Australia), and kinetic constants kon and koff were determined by global fitting analyses of the titration curves using the 1:1 Lagmurian interaction model considering the mass transport. The equilibrium dissociation constant (KD) was calculated from the koff/kon ratio.

[3] = system: HEK 293 cells; assay: In vitro cytotoxicity (SRB), HEK 293; assay type: cell-based, human
Protocol: (§1) Cells were cultured to 80% confluency in T75 culture flasks using DMEM as growth medium, respectively. The cells were seeded onto 96 well plates and grown for 24 h to reach 50% confluency.
(§2) At the end of the incubation period, the cells were fixed using 10% trichloroacetic acid, followed by washing with distilled water and drying. The cellular proteins were stained using 50 μL of 0.4% Sulforhodamine B (SRB) in 1% acetic acid. Unbound SRB was washed with 1% acetic acid and the plates were dried overnight. The cell bound SRB was then solubilized using 200 μL of 10 mM unbuffered tris base solution. SRB absorbance was measured at 560 nm wavelength using a plate reader. The percent viabilities of cells were plotted as a function of log concentration and data was analyzed in GraphPad Prism Version 5.0 software (GraphPad Software Inc, CA, USA) using nonlinear-regression curve fit (variable slope four parameter equation).

[4] = system: MDA MB 468 cells; assay: In vitro cytotoxicity (SRB), MDA MB 468; assay type: cell-based, human
Protocol: as §1, §2

[5] = system: A431 cells; assay: In vitro cytotoxicity (SRB), A431; assay type: cell-based
Protocol: as §1, §2

Chain of EGFR recombinant human protein (P00533 25-645 limits assumed): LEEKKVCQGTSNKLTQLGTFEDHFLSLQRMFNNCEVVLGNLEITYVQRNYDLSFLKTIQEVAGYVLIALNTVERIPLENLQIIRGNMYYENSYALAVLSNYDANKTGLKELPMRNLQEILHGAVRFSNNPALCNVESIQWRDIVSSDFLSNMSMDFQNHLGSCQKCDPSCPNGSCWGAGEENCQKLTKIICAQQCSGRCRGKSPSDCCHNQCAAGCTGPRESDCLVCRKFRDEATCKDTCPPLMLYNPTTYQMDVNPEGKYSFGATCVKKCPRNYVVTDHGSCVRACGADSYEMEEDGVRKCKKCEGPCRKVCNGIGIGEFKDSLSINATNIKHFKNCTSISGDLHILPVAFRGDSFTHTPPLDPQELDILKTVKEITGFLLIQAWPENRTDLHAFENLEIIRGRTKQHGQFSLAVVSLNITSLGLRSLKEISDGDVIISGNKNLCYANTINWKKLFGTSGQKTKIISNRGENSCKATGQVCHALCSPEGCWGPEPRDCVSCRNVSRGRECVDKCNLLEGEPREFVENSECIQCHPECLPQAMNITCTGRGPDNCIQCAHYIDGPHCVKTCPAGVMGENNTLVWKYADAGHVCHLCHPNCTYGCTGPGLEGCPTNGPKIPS
Chain of bovine serum albumin (BSA) (P02769 25-607): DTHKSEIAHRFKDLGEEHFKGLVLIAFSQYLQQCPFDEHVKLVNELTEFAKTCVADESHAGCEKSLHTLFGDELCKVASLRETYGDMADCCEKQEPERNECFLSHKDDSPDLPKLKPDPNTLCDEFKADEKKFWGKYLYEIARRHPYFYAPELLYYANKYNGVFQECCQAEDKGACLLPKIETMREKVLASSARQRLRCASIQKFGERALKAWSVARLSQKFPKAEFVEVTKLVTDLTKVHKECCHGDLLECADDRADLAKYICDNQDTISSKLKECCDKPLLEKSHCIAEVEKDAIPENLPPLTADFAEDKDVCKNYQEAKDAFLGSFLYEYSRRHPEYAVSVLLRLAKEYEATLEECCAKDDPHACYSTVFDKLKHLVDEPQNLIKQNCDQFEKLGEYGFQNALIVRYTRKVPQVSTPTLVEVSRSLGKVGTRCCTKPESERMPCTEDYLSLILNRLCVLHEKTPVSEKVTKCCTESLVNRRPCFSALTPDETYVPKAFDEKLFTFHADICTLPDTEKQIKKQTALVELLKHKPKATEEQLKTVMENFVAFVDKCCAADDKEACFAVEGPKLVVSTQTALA

## SGEWAYDGYEPNFG [Pep25]
[1]
  KD EGFR / binding to EGFR, no value: did not bind

## WSGENGPGFYDYEA [Pep11]
[2]
  KD BSA / binding to BSA, no value: did not show binding
[3]; 72 h
  IC50: 1040 nM
[4]; 72 h
  IC50: 420 nM
[5]; 72 h
  IC50: 388 nM

## CC[C@H](C)[C@@H]([C@@H](CC(=O)N1CCC[C@H]1[C@H](OC)[C@@H](C)C(=O)N[C@H](C)[C@@H](O)c1ccccc1)OC)N(C)C(=O)[C@@H](NC(=O)[C@@H](NC)C(C)C)C(C)C [MMAE, Monomethyl Auristatin E, reference compound] (H-[NMeV]V[Dil][Dolaproine]-X1)
[3]; SRB, 72 hours at 37 °C, 0.00001 to 10000 nM, read-out: IC50 (HEK 293)
  IC50: 0.0626 nM
[4]; SRB, 72 hours at 37 °C, 0.00001 to 10000 nM, read-out: IC50 (MDA MB 468)
  IC50: 0.0117 nM
[5]; SRB, 72 hours at 37 °C, 0.00001 to 10000 nM, read-out: IC50 (A431)
  IC50: 0.0246 nM
